Results on 21 compounds are retold here after patent publication US8435978B2, “Substituted sulfonamide compounds” (Gruenenthal GmbH, priority 2006, dated 2013).

For one assay, the target named is T1, B1R receptor of the rat (Rattus norvegicus, UniProt P97583).
T1 construct: host or cells: CHO K1 cells (Chinese hamster ovary), stably transfected
T1 sequence (P97583 1-337): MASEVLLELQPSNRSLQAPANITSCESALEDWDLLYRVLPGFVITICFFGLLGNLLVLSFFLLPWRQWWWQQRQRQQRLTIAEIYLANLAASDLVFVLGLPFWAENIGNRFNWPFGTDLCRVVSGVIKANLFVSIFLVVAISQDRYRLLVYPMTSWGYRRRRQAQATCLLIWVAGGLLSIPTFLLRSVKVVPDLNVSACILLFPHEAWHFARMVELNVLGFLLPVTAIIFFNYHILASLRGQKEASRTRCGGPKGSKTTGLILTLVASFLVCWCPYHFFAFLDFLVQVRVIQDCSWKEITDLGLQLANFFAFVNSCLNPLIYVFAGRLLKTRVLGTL
Kind of assay: Functional study on the bradykinin receptor 1 (B1R), FLIPR Ca2+ assay, rB1R cells. The class given is cell-based. The following applies: agonist Des-Arg9-bradykinin 100 nM, % inhibition compared with the maximum achievable inhibition; for inhibition at 10 µM: read-out: B1R Antagonism, rat [10 μM] % Inhibition. The method, boiled down: (§1)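 FLIPR Ca2+ read-out (Fluo-4, peak fluorescence) in stably transfected CHO K1 cells. Compounds at 10 μM, then 10 min later agonist challenge: human B1R with Lys-Des-Arg9-bradykinin 0.5 nM, rat B1R with Des-Arg9-bradykinin 100 nM; reported as % activation or % of maximal inhibition.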

The target in another assay is T2, human B1R receptor (Homo sapiens, UniProt P46663).
T2 construct: host or cells: CHO K1 cells (Chinese hamster ovary), stably transfected
T2 sequence (P46663 1-353): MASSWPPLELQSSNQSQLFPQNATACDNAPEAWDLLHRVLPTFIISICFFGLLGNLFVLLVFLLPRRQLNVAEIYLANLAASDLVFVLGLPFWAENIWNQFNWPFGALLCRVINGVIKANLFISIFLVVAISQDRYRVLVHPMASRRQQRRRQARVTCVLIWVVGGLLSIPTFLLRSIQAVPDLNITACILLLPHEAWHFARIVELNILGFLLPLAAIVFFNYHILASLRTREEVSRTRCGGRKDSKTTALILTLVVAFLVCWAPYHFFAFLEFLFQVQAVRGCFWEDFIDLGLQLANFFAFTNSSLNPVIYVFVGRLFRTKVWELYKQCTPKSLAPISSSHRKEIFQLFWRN
Kind of assay: Functional study on the bradykinin receptor 1 (B1R), FLIPR Ca2+ assay, hB1R cells. The class given is cell-based. The note with it: agonist Lys-Des-Arg9-bradykinin 0.5 nM, % inhibition compared with the maximum achievable inhibition; for inhibition at 10 µM: read-out: B1R Antagonism, human [10 μM] % Inhibition. The method, boiled down:
as §1

The mark [1] stands for this setting: test substance 10 μM, rB1R CHO K1 cells.
Setting [2] is: test substance 10 μM, hB1R CHO K1 cells.

The structures appear in SMILES notation. Counter-ions that a name gives are not always drawn. Like-named read-outs stand apart in the source and are kept apart here.

Regarding `COc1cc(C)c(S(=O)(=O)N2CCCCC2COCC(=O)N2CCC(=O)CC2)c(C)c1` (stereo not drawn) [Example 116, 1-(2-((1-(4-methoxy-2,6-dimethylphenylsulfonyl)piperidin-2-yl)methoxy)acetyl)piperidin-4-one], the inhibition (usually the change of the read-out against control, counted positive when it falls) at 10 µM on B1R receptor of the rat (setting [1]) worked out at 101%; on human B1R receptor (setting [2]), 74.2%.
For `COc1cc(C)c(S(=O)(=O)N2CCCCC2COCC(=O)Nc2cc(C)[nH]n2)c(C)c1` (stereo not drawn) [Example 535, 2-((1-(4-methoxy-2,6-dimethylphenylsulfonyl)piperidin-2-yl)methoxy)-N-(5-methyl-1H-pyrazol-3-yl)acetamide], the inhibition at 10 µM was 107% at B1R receptor of the rat (CHO-K1, test substance 10 μM) and 48.4% at human B1R receptor (CHO-K1, test substance 10 μM).
For `Cc1ccc(CN2CCN(C(=O)COCC3CCCN3S(=O)(=O)c3c(Cl)cccc3Cl)CC2)cc1` (stereo not drawn) [Example 360, 2-((1-(2,6-dichlorophenylsulfonyl)pyrrolidin-2-yl)methoxy)-1-(4-(4-methylbenzyl)piperazin-1-yl)ethanone], the inhibition at 10 µM worked out at 103% on B1R receptor of the rat (CHO-K1, test substance 10 μM) and 96.7% at human B1R receptor (CHO-K1, test substance 10 μM).
For `Cc1cc(C)c(S(=O)(=O)N2Cc3ccccc3CC2COCC(=O)N2CCCN(Cc3ccccc3)CC2)c(C)c1` (stereo not drawn) [Example 67, 1-(4-benzyl-[1,4]diazepan-1-yl)-2-[2-(2,4,6-trimethyl-phenylsulfonyl)-1,2,3,4-tetrahydro-isoquinolin-3-ylmethoxy]-ethanone] the same measures were 80.5% and 55%.
For `COc1cc(C)c(S(=O)(=O)N2CCCCC2COCC(=O)N(CCN(C)C)Cc2ccccc2)c(C)c1` (stereo not drawn) [Example 361, N-benzyl-N-(2-(dimethylamino)ethyl)-2-((1-(4-methoxy-2,6-dimethylphenylsulfonyl)piperidin-2-yl)methoxy)acetamide] the same measures were 101% and 93.4%.
As to `COc1cc(C)c(S(=O)(=O)N2CCCCC2COCC(=O)N2CCN(C3CCC(C(F)(F)F)CC3)CC2)c(C)c1` (stereo not drawn) [Example 134, 2-((1-(4-methoxy-2,6-dimethylphenylsulfonyl)piperidin-2-yl)methoxy)-1-(4-(4-(trifluoromethyl)cyclohexyl)piperazin-1-yl)ethanone], the inhibition at 10 µM on B1R receptor of the rat (CHO-K1, test substance 10 μM) is 98.2%; on human B1R receptor (CHO-K1, test substance 10 μM), 102%.
For `COc1cc(C)c(S(=O)(=O)N2CCCC2COCC(=O)NCC(c2ccccc2Cl)N2CCCC2)c(C)c1` (stereo not drawn) [Example 502, N-(2-(2-chlorophenyl)-2-(pyrrolidin-1-yl)ethyl)-2-((1-(4-methoxy-2,6-dimethylphenylsulfonyl)pyrrolidin-2-yl)methoxy)acetamide] the same measures were 103% and 96.7%.
As to `COc1cc(C)c(S(=O)(=O)N2CCCCC2COCC(=O)N2CCC(NCC(c3cccnc3)N3CCOCC3)CC2)c(C)c1` (stereo not drawn) [Example 136, 2-((1-(4-methoxy-2,6-dimethylphenylsulfonyl)piperidin-2-yl)methoxy)-1-(4-(2-morpholin-2-(pyridin-3-yl)ethylamino)piperidin-1-yl)ethanone], the “B1R Antagonism, rat [10 μM] % Inhibition” value on B1R receptor of the rat (setting [1]) amounted to 98.94%. Also, the “B1R Antagonism, human [10 μM] % Inhibition” value on human B1R receptor (setting [2]) worked out at 103.97%.
Take `Cc1ccc(C)n1CCN1CCN(C(=O)COCC2CCCCN2S(=O)(=O)c2c(Cl)cccc2Cl)CC1` (stereo not drawn) [Example 280, 2-((1-(2,6-dichlorophenylsulfonyl)piperidin-2-yl)methoxy)-1-(4-(2-(2,5-dimethyl-1H-pyrrol-1-yl)ethyl)piperazin-1-yl)ethanone]: the inhibition at 10 µM at B1R receptor of the rat (CHO-K1, test substance 10 μM) turned out to be 92%; on human B1R receptor (CHO-K1, test substance 10 μM) it was 104%.
The matching figures for `CN1CCC(N2CCN(C(=O)COCC3CCCCN3S(=O)(=O)c3cc(Cl)sc3Cl)CC2)CC1` (stereo not drawn) [Example 170, 2-((1-(2,5-dichlorothiophen-3-ylsulfonyl)piperidin-2-yl)methoxy)-1-(4-(1-methylpiperidin-4-yl)piperazin-1-yl)ethanone dihydrochloride]: 97.8% and 101%.
In the case of `COc1cc(C)c(S(=O)(=O)N2CCCCC2COCC(=O)N(CCN(C)C)Cc2ccccc2)c(C)c1` (stereo not drawn) [Example 377], the “B1R Antagonism, rat [10 μM] % Inhibition” value on B1R receptor of the rat (setting [1]) is reported as 99.56%. Besides, the “B1R Antagonism, human [10 μM] % Inhibition” value on human B1R receptor (setting [2]) is given as 87.21%.
In the case of `CN1CCC(N2CCN(C(=O)COCC3CCCCN3S(=O)(=O)c3c(Cl)cc(C(F)(F)F)cc3Cl)CC2)CC1` (stereo not drawn) [Example 108, 2-((1-(2,6-dichloro-4-(trifluoromethyl)phenylsulfonyl)piperidin-2-yl)methoxy)-1-(4-(1-methylpiperidin-4-yl)piperazin-1-yl)ethanone], the inhibition at 10 µM at B1R receptor of the rat (CHO-K1, test substance 10 μM) was found to be 102%; on human B1R receptor (CHO-K1, test substance 10 μM) it was 102%.
`COc1cc(C)c(S(=O)(=O)N2CCCC2COCC(=O)N2CCN(C3CCN(C)CC3)CC2)c(C)c1` (stereo not drawn) [Example 192, 2-((1-(4-methoxy-2,6-dimethylphenylsulfonyl)pyrrolidin-2-yl)methoxy)-1-(4-(1-methylpiperidin-4-yl)piperazin-1-yl)ethanone]: the inhibition at 10 µM on B1R receptor of the rat (CHO-K1, test substance 10 μM) stood at 100%; at human B1R receptor (CHO-K1, test substance 10 μM), 106%.
The matching figures for `COc1cc(C)c(S(=O)(=O)N2CCCCC2COCC(=O)N2CCN(c3ncnc4ccsc34)CC2)c(C)c1` (stereo not drawn) [Example 113, 2-((1-(4-methoxy-2,6-dimethylphenylsulfonyl)piperidin-2-yl)methoxy)-1-(4-(thieno[3,2-d]pyrimidin-4-yl)piperazin-1-yl)ethanone]: 97.1% and 99.2%.
For `COc1cc(C)c(S(=O)(=O)N2CCCCC2COCC(=O)NCCCn2ccnc2)c(C)c1` (stereo not drawn) [Example 366, N-(3-(1H-imidazol-1-yl)propyl)-2-((1-(4-methoxy-2,6-dimethylphenylsulfonyl)piperidin-2-yl)methoxy)acetamide] the same measures were 99% and 14.8%.
For `COc1cc(C)c(S(=O)(=O)N2CCCC2COCC(=O)N2CCN(Cc3ccc(C)cc3)CC2)c(C)c1` (stereo not drawn) [Example 353, 2-((1-(4-methoxy-2,6-dimethylphenylsulfonyl)pyrrolidin-2-yl)methoxy)-1-(4-(4-methylbenzyl)piperazin-1-yl)ethanone] the same measures were 102% and 103%.
For `COc1cc(C)c(S(=O)(=O)N2CCC[C@H]2COCC(=O)N2CCN(CC3CCN(C)CC3)CC2)c(C)c1` [Example 181, (S)-2-((1-(4-methoxy-2,6-dimethylphenylsulfonyl)pyrrolidin-2-yl)methoxy)-1-(4-((1-methylpiperidin-4-yl)methyl)piperazin-1-yl)ethanone], the inhibition at 10 µM at B1R receptor of the rat (CHO-K1, test substance 10 μM) is 98.5%; at human B1R receptor (CHO-K1, test substance 10 μM), 105%.
Consider `COc1cc(C)c(S(=O)(=O)N2CCCCC2COCC(=O)NCc2ccccc2N2CCN(C)CC2)c(C)c1` (stereo not drawn) [Example 432, 2-((1-(4-methoxy-2,6-dimethylphenylsulfonyl)piperidin-2-yl)methoxy)-N-(2-(4-methylpiperazin-1-yl)benzyl)acetamide], for which the inhibition at 10 µM at B1R receptor of the rat (CHO-K1, test substance 10 μM) came to 100%; at human B1R receptor (CHO-K1, test substance 10 μM), 94%.
For `Cc1ccc2ccccc2c1S(=O)(=O)N1CCCCC1COCC(=O)N1CCN(C2CCN(C)CC2)CC1` (stereo not drawn) [Example 157, 2-((1-(2-methylnaphthalen-1-ylsulfonyl)piperidin-2-yl)methoxy)-1-(4-(1-methylpiperidin-4-yl)piperazin-1-yl)ethanone dihydrochloride] the same measures were 100% and 98.2%.
The matching figures for `O=C(COCC1CCCCN1S(=O)(=O)c1cccc2ccccc12)N1CCC(N2CCCC2)CC1` (stereo not drawn) [Example 23, 2-((1-(naphthalen-1-ylsulfonyl)piperidin-2-yl)methoxy)-1-(4-(pyrrolidin-1-yl)piperidin-1-yl)ethanone]: 85.3% and 92.3%.
For `COc1cc(C)c(S(=O)(=O)N2CCCCC2COCC(=O)N(Cc2ccc(N(C)C)cc2)C(C)C)c(C)c1` (stereo not drawn) [Example 367, N-(4-(dimethylamino)benzyl)-N-isopropyl-2-((1-(4-methoxy-2,6-dimethylphenylsulfonyl)piperidin-2-yl)methoxy)acetamide] the same measures were 103% and 20.1%.
